Common to all, as to assay type: functional
For one assay, the system named is Candida albicans. Put plainly: Antifungal activity against Candida albicans ATCC Y0109 after 24 hrs by broth microdilution method.
For a further assay, the system named is Cryptococcus neoformans. As to the kind of experiment: Antifungal activity against Cryptococcus neoformans ATCC BLS108 after 72 hrs by broth microdilution method.
In a further assay the test system is Candida parapsilosis. Put plainly: Antifungal activity against Candida parapsilosis by broth microdilution method. To be noted: Lodderomyces parapsilosis.
The subject of a further assay is Candida tropicalis. As to the kind of experiment: Antifungal activity against Candida tropicalis by broth microdilution method.
A further assay relates to Trichophyton rubrum. As to the kind of experiment: Antifungal activity against Trichophyton rubrum by broth microdilution method.
Another assay concerns Fusarium. Put plainly: Antifungal activity against Fusarium by broth microdilution method.
For a further assay, the system named is Nannizzia gypsea. As to the kind of experiment: Antifungal activity against Microsporum gypseum by broth microdilution method.
The next assay concerns Aspergillus fumigatus. As to the kind of experiment: Antifungal activity against Aspergillus fumigatus by broth microdilution method.

Converted amounts (≈) assume the structure as drawn.

In the case of `C[C@@H](c1ncncc1F)[C@](O)(Cn1cncn1)c1ccc(F)cc1F` [VORICONAZOLE], the MIC80 against Candida albicans is 0.0152 µg/mL (≈ 0.0435 µM); against Cryptococcus neoformans, 0.0152 µg/mL (≈ 0.0435 µM); with Candida parapsilosis it was 1 µg/mL (≈ 2.86 µM); in the assay on Candida tropicalis, 0.25 µg/mL (≈ 0.716 µM); with Trichophyton rubrum, 0.0039 µg/mL (≈ 0.0112 µM); with Fusarium it was 0.0152 µg/mL (≈ 0.0435 µM). Also, the results for the MIC80 in the assay with Nannizzia gypsea and in the assay on Aspergillus fumigatus were 0.0039 µg/mL (≈ 0.0112 µM) and over 64 µg/mL, respectively.
Take `O=C(/C=C/c1ccccc1F)Nc1ccc(N2CCN(CC(O)(Cn3cncn3)c3ccc(F)cc3F)CC2)c(F)c1` (stereo not drawn): the MIC80 was found to be 0.25 µg/mL (≈ 0.431 µM) against Candida albicans; 0.25 µg/mL (≈ 0.431 µM) with Cryptococcus neoformans; 0.0625 µg/mL (≈ 0.108 µM) in the assay on Candida parapsilosis; 0.0625 µg/mL (≈ 0.108 µM) against Candida tropicalis; 0.0625 µg/mL (≈ 0.108 µM) with Trichophyton rubrum; 1 µg/mL (≈ 1.72 µM) against Fusarium. For the same compound, the MIC80 came out at 0.25 µg/mL (≈ 0.431 µM) against Nannizzia gypsea and 4 µg/mL (≈ 6.89 µM) against Aspergillus fumigatus.
For the compound `O=C(/C=C/c1cccc(Cl)c1)Nc1ccc(N2CCN(CC(O)(Cn3cncn3)c3ccc(F)cc3F)CC2)cc1` (stereo not drawn), the MIC80 was 0.0625 µg/mL (≈ 0.108 µM) in the assay on Candida albicans; 1 µg/mL (≈ 1.73 µM) against Cryptococcus neoformans; 1 µg/mL (≈ 1.73 µM) with Candida parapsilosis; 0.25 µg/mL (≈ 0.432 µM) in the assay with Candida tropicalis; 1 µg/mL (≈ 1.73 µM) in the assay on Trichophyton rubrum; 64 µg/mL (≈ 111 µM) in the assay on Fusarium. In addition, the MIC80 in the assay with Nannizzia gypsea came to 0.0156 µg/mL (≈ 0.0269 µM); in the assay on Aspergillus fumigatus it was 64 µg/mL (≈ 111 µM).
Regarding `O=C(/C=C/c1ccccc1F)Nc1ccc(N2CCN(CC(O)(Cn3cncn3)c3ccc(F)cc3F)CC2)cc1` (stereo not drawn), the MIC80 with Candida albicans stood at 0.0039 µg/mL (≈ 0.00693 µM); against Cryptococcus neoformans it was 0.0625 µg/mL (≈ 0.111 µM); against Candida parapsilosis it was 0.0625 µg/mL (≈ 0.111 µM); in the assay on Candida tropicalis, 0.0156 µg/mL (≈ 0.0277 µM); in the assay with Trichophyton rubrum, 0.25 µg/mL (≈ 0.444 µM); with Fusarium, 1 µg/mL (≈ 1.78 µM). Further, the MIC80 was 0.0625 µg/mL (≈ 0.111 µM) in the assay on Nannizzia gypsea and over 64 µg/mL with Aspergillus fumigatus.
With `O=C(/C=C/c1cccc(Cl)c1)Nc1ccc(N2CCN(CC(O)(Cn3cncn3)c3ccc(F)cc3F)CC2)c(F)c1` (stereo not drawn), the MIC80 against Candida albicans was found to be 1 µg/mL (≈ 1.67 µM); against Cryptococcus neoformans, 0.25 µg/mL (≈ 0.419 µM); with Candida parapsilosis, 0.25 µg/mL (≈ 0.419 µM); against Candida tropicalis, 0.0625 µg/mL (≈ 0.105 µM); against Trichophyton rubrum, 0.25 µg/mL (≈ 0.419 µM); in the assay on Fusarium it was 1 µg/mL (≈ 1.67 µM). For the same compound, the MIC80 against Nannizzia gypsea is 0.0625 µg/mL (≈ 0.105 µM); in the assay on Aspergillus fumigatus, 1 µg/mL (≈ 1.67 µM).
On to `COc1ccc(OC)c(/C=C/C(=O)Nc2ccc(N3CCN(CC(O)(Cn4cncn4)c4ccc(F)cc4F)CC3)cc2)c1` (stereo not drawn), for which the MIC80 in the assay with Candida albicans was 0.0156 µg/mL (≈ 0.0258 µM); with Cryptococcus neoformans, 0.25 µg/mL (≈ 0.413 µM); in the assay with Candida parapsilosis, 0.25 µg/mL (≈ 0.413 µM); against Candida tropicalis, 0.0625 µg/mL (≈ 0.103 µM); in the assay on Trichophyton rubrum it was 0.25 µg/mL (≈ 0.413 µM); in the assay with Fusarium, 4 µg/mL (≈ 6.62 µM). The MIC80 in the assay on Nannizzia gypsea is 1 µg/mL (≈ 1.65 µM); against Aspergillus fumigatus, over 64 µg/mL.
For the compound `O=C(/C=C/c1ccc(Cl)c(Cl)c1)Nc1ccc(N2CCN(CC(O)(Cn3cncn3)c3ccc(F)cc3F)CC2)cc1` (stereo not drawn), the MIC80 is 0.0156 µg/mL (≈ 0.0254 µM) against Candida albicans; 0.25 µg/mL (≈ 0.408 µM) against Cryptococcus neoformans; 0.0625 µg/mL (≈ 0.102 µM) with Candida parapsilosis; 0.0625 µg/mL (≈ 0.102 µM) in the assay with Candida tropicalis; 0.0156 µg/mL (≈ 0.0254 µM) in the assay on Trichophyton rubrum; 0.25 µg/mL (≈ 0.408 µM) with Fusarium. In addition, the MIC80 against Nannizzia gypsea was 0.25 µg/mL (≈ 0.408 µM); with Aspergillus fumigatus, 4 µg/mL (≈ 6.52 µM).
In the case of `COc1ccc(/C=C/C(=O)Nc2ccc(N3CCN(CC(O)(Cn4cncn4)c4ccc(F)cc4F)CC3)cc2)cc1OC` (stereo not drawn), the MIC80 is 0.0156 µg/mL (≈ 0.0258 µM) in the assay with Candida albicans; 0.25 µg/mL (≈ 0.413 µM) with Cryptococcus neoformans; 0.0625 µg/mL (≈ 0.103 µM) against Candida parapsilosis; 0.0625 µg/mL (≈ 0.103 µM) in the assay on Candida tropicalis; 0.25 µg/mL (≈ 0.413 µM) in the assay with Trichophyton rubrum; 1 µg/mL (≈ 1.65 µM) with Fusarium. The MIC80 with Nannizzia gypsea was determined as 0.25 µg/mL (≈ 0.413 µM); in the assay on Aspergillus fumigatus it was 4 µg/mL (≈ 6.62 µM).
Take `OC(Cn1cncn1)(Cn1cncn1)c1ccc(F)cc1F` [FLUCONAZOLE]: the MIC80 turned out to be 4 µg/mL (≈ 13.1 µM) in the assay on Candida albicans; 1 µg/mL (≈ 3.27 µM) against Cryptococcus neoformans; 1 µg/mL (≈ 3.27 µM) against Candida parapsilosis; 1 µg/mL (≈ 3.27 µM) against Candida tropicalis; 0.25 µg/mL (≈ 0.816 µM) in the assay with Trichophyton rubrum; 16 µg/mL (≈ 52.2 µM) against Fusarium. Besides, the values for the MIC80 with Nannizzia gypsea and in the assay on Aspergillus fumigatus were 0.25 µg/mL (≈ 0.816 µM) and 64 µg/mL (≈ 209 µM), respectively.
`O=C(/C=C/c1ccccc1[N+](=O)[O-])Nc1ccc(N2CCN(CC(O)(Cn3cncn3)c3ccc(F)cc3F)CC2)c(F)c1` (stereo not drawn): the MIC80 with Candida albicans came to 0.25 µg/mL (≈ 0.411 µM); against Cryptococcus neoformans, 1 µg/mL (≈ 1.65 µM); with Candida parapsilosis, 1 µg/mL (≈ 1.65 µM); in the assay with Candida tropicalis, 1 µg/mL (≈ 1.65 µM); against Trichophyton rubrum, 0.25 µg/mL (≈ 0.411 µM); in the assay with Fusarium, 16 µg/mL (≈ 26.3 µM). In addition, the figures for the MIC80 in the assay with Nannizzia gypsea and against Aspergillus fumigatus were 1 µg/mL (≈ 1.65 µM) and 64 µg/mL (≈ 105 µM), respectively.
Turning to `N#Cc1cccc(/C=C/C(=O)Nc2ccc(N3CCN(CC(O)(Cn4cncn4)c4ccc(F)cc4F)CC3)cc2)c1` (stereo not drawn), the MIC80 was 0.0156 µg/mL (≈ 0.0274 µM) against Candida albicans; 1 µg/mL (≈ 1.76 µM) against Cryptococcus neoformans; 0.25 µg/mL (≈ 0.439 µM) in the assay with Candida parapsilosis; 0.25 µg/mL (≈ 0.439 µM) against Candida tropicalis; 1 µg/mL (≈ 1.76 µM) in the assay with Trichophyton rubrum; 16 µg/mL (≈ 28.1 µM) against Fusarium. For the same compound, the values for the MIC80 in the assay on Nannizzia gypsea and against Aspergillus fumigatus were 0.0625 µg/mL (≈ 0.11 µM) and over 64 µg/mL, respectively.
